Reference: patent publication US20260191863A1, “PYRROLOPYRIMIDINE COMPOSITIONS FOR TREATMENT OF ITK MEDIATED CONDITIONS” (ACLARIS THERAPEUTICS, INC., priority 2022, published 2026)

Key:
[1] = biological target: T1, ITK (Homo sapiens, UniProt Q08881); experiment: Cell IC50 ITK (Jurkat/pPLCγ1); assay type: cell-based
T1 construct: (Jurkat/pPLCγ1); endogenous in cells; host or cells: Jurkat
T1 sequence (Q08881 1-620): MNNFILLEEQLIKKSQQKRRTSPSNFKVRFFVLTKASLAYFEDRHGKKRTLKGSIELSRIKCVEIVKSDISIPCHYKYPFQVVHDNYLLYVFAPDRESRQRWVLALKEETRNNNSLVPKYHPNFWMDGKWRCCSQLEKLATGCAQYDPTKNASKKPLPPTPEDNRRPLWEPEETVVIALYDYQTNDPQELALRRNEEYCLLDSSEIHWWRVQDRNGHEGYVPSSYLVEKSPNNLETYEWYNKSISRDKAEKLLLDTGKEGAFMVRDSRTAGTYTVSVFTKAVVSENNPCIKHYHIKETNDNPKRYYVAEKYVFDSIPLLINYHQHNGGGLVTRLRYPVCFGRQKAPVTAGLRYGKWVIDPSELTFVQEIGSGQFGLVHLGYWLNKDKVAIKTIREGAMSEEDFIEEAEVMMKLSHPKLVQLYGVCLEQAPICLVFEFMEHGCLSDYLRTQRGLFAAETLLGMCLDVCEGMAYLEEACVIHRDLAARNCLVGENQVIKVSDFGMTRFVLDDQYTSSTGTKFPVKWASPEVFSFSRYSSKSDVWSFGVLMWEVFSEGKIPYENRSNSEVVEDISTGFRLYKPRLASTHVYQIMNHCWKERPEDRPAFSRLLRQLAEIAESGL

[2] = biological target: T2, JAK2 (Homo sapiens, UniProt O60674); experiment: Cell IC50 JAK2; assay type: cell-based
T2 construct: endogenous in cells
T2 sequence (O60674 whole entry): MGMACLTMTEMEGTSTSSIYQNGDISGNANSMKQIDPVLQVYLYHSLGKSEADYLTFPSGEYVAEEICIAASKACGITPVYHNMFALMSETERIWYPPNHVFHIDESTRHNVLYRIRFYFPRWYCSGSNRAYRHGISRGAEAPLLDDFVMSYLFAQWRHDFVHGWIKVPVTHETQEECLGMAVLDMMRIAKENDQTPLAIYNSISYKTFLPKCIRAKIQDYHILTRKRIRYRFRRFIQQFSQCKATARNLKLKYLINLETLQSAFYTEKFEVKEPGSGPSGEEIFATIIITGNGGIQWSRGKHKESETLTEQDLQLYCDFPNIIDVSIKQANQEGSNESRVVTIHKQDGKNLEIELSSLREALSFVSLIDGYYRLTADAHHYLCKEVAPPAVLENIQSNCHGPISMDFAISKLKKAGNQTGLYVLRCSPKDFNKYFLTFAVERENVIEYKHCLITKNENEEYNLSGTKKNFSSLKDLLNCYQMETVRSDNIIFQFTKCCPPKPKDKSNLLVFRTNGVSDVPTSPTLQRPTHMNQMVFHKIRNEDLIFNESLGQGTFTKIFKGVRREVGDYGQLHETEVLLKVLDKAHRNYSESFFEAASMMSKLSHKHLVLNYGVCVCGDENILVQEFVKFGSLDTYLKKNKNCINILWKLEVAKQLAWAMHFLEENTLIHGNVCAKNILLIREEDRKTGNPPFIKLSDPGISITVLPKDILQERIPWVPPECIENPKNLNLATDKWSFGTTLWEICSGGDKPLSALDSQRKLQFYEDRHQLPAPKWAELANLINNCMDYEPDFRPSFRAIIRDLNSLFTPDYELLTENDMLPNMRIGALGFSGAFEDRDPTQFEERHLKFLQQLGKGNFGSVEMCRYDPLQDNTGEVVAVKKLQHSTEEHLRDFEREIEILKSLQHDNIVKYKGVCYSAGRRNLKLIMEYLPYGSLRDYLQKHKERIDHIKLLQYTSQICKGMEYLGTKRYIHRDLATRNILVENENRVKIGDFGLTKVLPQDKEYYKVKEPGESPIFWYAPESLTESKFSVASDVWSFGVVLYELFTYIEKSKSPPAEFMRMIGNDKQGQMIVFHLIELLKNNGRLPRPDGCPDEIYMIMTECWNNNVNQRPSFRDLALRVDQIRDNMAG

Which “Potency on ITK relative to ritlecitinib” value [1] does the source give for `C=CC(=O)N1C[C@H](Nc2ncnc3[nH]cc([C@H]4CC4(F)F)c23)CC[C@@H]1C` [Compound I, 1-((2S,5R)-5-((5-((R)-2,2-difluorocyclopropyl)-7H-pyrrolo[2,3-d]pyrimidin-4-yl)amino)-2-methylpiperidin-1-yl)prop-2-en-1-one] here?
The value was ~ 100 ×.

And the “Potency relative to Ritlecitinib, ITK (Jurkat/pPLCγ1)” value [1]?
Its value is 81 fold.

What about the “T cell receptor blockade, Compound I vs CsA” value [1] of the same compound?
Its value is “equipotent”.

And the IC50 ([1]; Jurkat, pPLCγ1)?
Its IC50 is 8 nM.

What about the “Selectivity for ITK (over JAK3)” value ([1]; cell IC50 ITK vs JAK3) of the same compound?
The value was 3 fold.

And the “Cell IC50, JAK2” value [2]?
Its value is “Inactive”.
